Literature values as cited in patent publication EP4364951A1, “OVERCOAT INK AND INK SET CONTAINING SAME” (DNP Fine Chemicals Co., Ltd., priority 2021, dated 2023).

Details: water-octanol, common logarithm

| Partition coefficient | SMILES |
| --- | --- |
| 1,2-Butanediol (-0.499) | CCC(O)CO (stereo not shown) [1,2-Butanediol] |
| 1.2-Pentanediol (0.011) | CCCC(O)CO (stereo not shown) [1.2-Pentanediol] |
| 3- M ethyl- 1,3- butanediol (-0.329) | CC(C)(O)CCO [3-M ethyl-1,3-butanediol] |

Second part, the compound before the results:

| SMILES | Partition coefficient |
| --- | --- |
| CC(O)CO (stereo not shown) [1,2-Propanediol] | 1,2-Propanediol (-1.008) |
| OCCCO [1,3-Propanediol] | 1,3-Propanediol (-1.093) |
| COC(C)CCO (stereo not shown) [3-Methoxy-1-butanol] | 3-Methoxy -1-butanol (0.070) |
| CCOCCOCCO [Diethylene glycol monoethyl ether] | Diethylene glycol monoethyl ether (-0.421) |
